Experimental data as given in publication PMC9090141 (Pediatric blood & cancer, 2021).
Values joined by “and” are separate entries in the source; they are usually repeats but may differ in a detail not shown here. Equal entries are not always repeated. “Also recorded” adds a separate entry of the source. Structures can show the parent of a compound that is named as a salt. Where two headings read alike, the source gives them in different places.

Columns and labels:
[1] = tested on: recurrent or refractory solid and CNS tumors; experiment: Radiographic antitumor response; format: in vivo, human
[2] = in vivo; cited from earlier work
[3] = tested on: pediatric tumor xenograft models; details: in vivo; cited from earlier work
[4] = adults, 105 mg/m^2, cited from earlier work
[5] = tested on: adults with advanced or metastatic solid tumors; details: cited from earlier work
[6] = tested on: pCHK1; details: cited from earlier work
[7] = Plasma pharmacokinetics in cycle 1; format: in vivo, human; details: for Tmax / half-life / concentration at 24 h / AUC(0-inf) / AUC(0-t) / Cmax: plasma; for concentration at 24 h: RP2D (150 mg/m^2)
[8] = 25 patients evaluable for response
[9] = 80 mg/m^2 IV over 60 min, first dose cycle 1, 6 patients
[10] = 100 mg/m^2 IV over 60 min, first dose cycle 1, 6 patients
[11] = 125 mg/m^2 IV over 60 min, first dose cycle 1, 5 patients
[12] = 150 mg/m^2 IV over 60 min, first dose cycle 1, 12 patients
[13] = All Patients (80-150 mg/m^2), first dose cycle 1, 29 patients

Structure (SMILES): COc1cccc(OCCCN)c1-c1cc(Nc2cnc(C#N)cn2)n[nH]1 [prexasertib, Prexasertib mesylate monohydrate]
- best overall response (BOR) [1, 8]: stable disease in 3 patients; also recorded: Three patients had a best overall response (BOR) of stable disease
- objective responses [1, 8]: no objective responses
- duration of stable disease ([1]; patient with (anaplastic) ependymoma, dose level 2): 3 cycles
- duration of stable disease ([1]; patient with hepatocellular carcinoma, dose level 1): 5 cycles
- duration of stable disease ([1]; patient with undifferentiated sarcoma, dose level 3): 5 cycles
- CNS penetration [2]: adequate CNS penetration
- tolerability [3]: well-tolerated
- mean AUC0–24h ([4]; ref Hong et al. [11]): 1130 ng·h/mL
- mean AUC0–24h ([4]; ref Iwasa et al. [20]): 1690 ng·h/mL
- dose-limiting toxicities at the adult RP2D ([5]; 105 mg/m^2 IV once every 14 days): no dose-limiting toxicities
- adult recommended Phase 2 dose (RP2D) ([5]; IV once every 14 days): 105 mg/m^2
- median AUC0–72h predicted for efficacy ([6]; Calu-6 preclinical PK/PD model): 1896 ng·h/mL
- IC50 for pCHK1 inhibition (plasma concentration) [6]: 14.1 ng/ml
- CLp [7, 9]: 48.2 ± 11.5 L/hr/m^2
- Vss [7, 9]: 245 ± 67 L/m^2
- CLp [7, 10]: 45.1 L/hr/m^2 and 45.1 ± 12.6 L/hr/m^2
- Vss [7, 10]: 332 ± 85 L/m^2
- CLp [7, 11]: 49.3 ± 10.3 L/hr/m^2
- Vss [7, 11]: 292 ± 169 L/m^2
- CLp [7, 12]: 44.4 L/hr/m^2 and 44.4 ± 13.5 L/hr/m^2
- Vss [7, 12]: 257 ± 98 L/m^2
- exposure relative to the adult RP2D ([7]; 150 mg/m^2 vs RP2D from either adult study): twice the exposure
- dose proportionality / linearity of PK ([7]; 80–150 mg/m^2 dose range, single dose): linear; also recorded: proportional to dose
- CLp [7, 13]: 46.1 ± 12.0 L/hr/m^2
- Vss [7, 13]: 276 ± 102 L/m^2
- BSA-adjusted plasma clearance ([7]; children <12 years (N=16)): 49.4 ± 10.0 L/hr/m^2
- plasma clearance ([7]; females (N=9)): 47.1 ± 9.7 L/hr/m^2
- time plasma concentrations maintained above the IC50 for pCHK1 inhibition ([7]; human, in vivo): approximately 24 hours
- Tmax ([7]; human, intravenous): 1.2 ± 0.5 h
- half-life ([7]; human, intravenous): 8.9 ± 3.4 h
- concentration at 24 h ([7]; human, intravenous, 150 mg/m^2, median plasma concentration 24 hours after the first dose (C-24h)): 13.4 ng/mL
- concentration at 24 h ([7]; human, intravenous, 150 mg/m^2, range of plasma concentration 24 hours after the first dose (C-24h)): 7.6 to 43.6 ng/mL
- AUC(0-inf) ([7]; human, iv, 80 mg/m2): 1730 ± 387 ng·h/mL
- AUC(0-t) ([7]; human, iv, 80 mg/m2): 1620 ± 358 ng·h/mL
- Cmax ([7]; human, iv, 80 mg/m2): 858 ± 311 ng/mL
- Tmax ([7]; human, iv, 80 mg/m2): 1.4 ± 0.9 h
- half-life ([7]; human, iv, 80 mg/m2): 7.6 ± 2.3 h
- AUC(0-inf) ([7]; human, iv, 100 mg/m2): 2380 ± 712 ng·h/mL
- AUC(0-t) ([7]; human, iv, 100 mg/m2): 2010 ± 416 ng·h/mL
- Cmax ([7]; human, iv, 100 mg/m2): 984 ± 289 ng/mL
- Tmax ([7]; human, iv, 100 mg/m2): 1.1 ± 0.2 h
- half-life ([7]; human, iv, 100 mg/m2): 10 ± 3.9 h
- AUC(0-inf) ([7]; human, iv, 125 mg/m2): 2640 ± 632 ng·h/mL
- AUC(0-t) ([7]; human, iv, 125 mg/m2): 2460 ± 545 ng·h/mL
- Cmax ([7]; human, iv, 125 mg/m2): 1230 ± 212 ng/mL
- Tmax ([7]; human, iv, 125 mg/m2): 1.1 ± 0.1 h
- half-life ([7]; human, iv, 125 mg/m2): 8.5 ± 4.5 h
- AUC(0-inf) ([7]; human, iv, 150 mg/m2): 3680 ± 1060 ng·h/mL
- AUC(0-t) ([7]; human, iv, 150 mg/m2): 3360 ± 898 ng·h/mL
- Cmax ([7]; human, iv, 150 mg/m2): 1700 ± 822 ng/mL
- Tmax ([7]; human, iv, 150 mg/m2): 1.2 ± 0.5 h
- half-life ([7]; human, iv, 150 mg/m2): 9.2 ± 3.5 h
- plasma clearance ([7]; males (N=20)): 45.6 ± 13.1 L/hr/m^2
- BSA-adjusted plasma clearance ([7]; ≥12 years (N=13)): 42.2 ± 13.3 L/hr/m^2
